Entries after “also recorded” stand apart in the source; their conditions may differ.
How the values were obtained:
elo-5(RNAi) worms [1] = assay: GC analysis of FA composition in elo-5(RNAi) worms grown on supplemented plates; type: in vivo, Caenorhabditis elegans; details: for elongation of the supplement to C17ISO: added as food supplements; for incorporation of the supplement into lipids and its elongation (GC): elo-5(RNAi) worms on supplemented plates
Description: A mixed population of well-fed worms were washed off the plates with water, rinsed 3-4 times, and, after aspirating away water, were frozen at −80° C. Fatty Acid Methyl Esters and lipid extraction were performed as described (Miquel and Browse 1992). GC was performed on the HP6890N (Agilent) equipped with a DB-23 column (30 m×250 μm×0.25 μm) (Kniazeva, Sieber et al. 2003). Each experiment was repeated at least five times. Average values and standard deviations were then calculated for each of the compounds in the experiments.
(§1) Ninety μl of the 4 mM solution of FA (Sigma) in 1% NP40 or 10% DMSO was dropped on the side of the bacterial lawn that contained either elo-5 dsRNA-producing plasmid or the control HT115 vector. Two synchronized young adults were plated and their progeny was scored 4 and 5 days later. Each experiment was performed in at least 30 replicates. For recovering elo-5(RNAi) worms from L1 arrest, wild type adults were placed on the elo-5(RNAi) plates. Four days later, their progeny was removed and eggs of the next generation were left on the plates. Hatched L1 were kept for two or four days before transferring as agar chunks to new elo-5(RNAi) plates. FA supplements were added to spots next to the chunks. Ten plates were prepared for each FA supplement. Control plates contained no supplements. […] Neither C15 nor C17 mmBCFA added to let-418(RNAi) plates modified the expected phenotype.

N2 = assay: Growth and maturation of wild type N2 on supplemented plates; type: in vivo, C. elegans
[2] = Elongation of exogenous short chain mmBCFA in cultured human cells; type: cell-based
elo-5(gk208) = assay: Rescue, growth and maturation of the elo-5(gk208) mutant on supplemented plates; type: in vivo, C. elegans
mouse C2C12 (myoblasts) = assay: Elongation of exogenous short chain mmBCFA in cultured mouse cells; type: cell-based
elo-5(RNAi) worms [3] = assay: Phenotype rescue of elo-5(RNAi) worms using FA supplements; type: in vivo, Caenorhabditis elegans; details: for plates on which the supplement rescued the elo-5 RNAi defects: FA supplement (90 μl of 4 mM) on elo-5(RNAi) plates, progeny scored 4 and 5 days later, rescued/total plates; for rescue of mmBCFA deficiency: added as food supplements; for plates with partial rescue of the elo-5 RNAi defects: FA supplement on elo-5(RNAi) plates, partially rescued/total plates; for rescue of elo-5(RNAi) phenotype: animals grown on elo-5 RNAi plates with supplement or mmBCFA-producing bacteria
Description: The RNAi feeding strain was E. coli HT115 transformed with either empty pPD129.36 vector (controls) or with dsRNA-producing constructs. Unless stated differently, wild type N2 Bristol animals were plated as synchronized adults.
Ninety μl of the 4 mM solution of FA (Sigma) in 1% NP40 or 10% DMSO was dropped on the side of the bacterial lawn that contained either elo-5 dsRNA-producing plasmid or the control HT115 vector. Two synchronized young adults were plated and their progeny was scored 4 and 5 days later. Each experiment was performed in at least 30 replicates. For recovering elo-5(RNAi) worms from L1 arrest, wild type adults were placed on the elo-5(RNAi) plates. Four days later, their progeny was removed and eggs of the next generation were left on the plates. Hatched L1 were kept for two or four days before transferring as agar chunks to new elo-5(RNAi) plates. FA supplements were added to spots next to the chunks. Ten plates were prepared for each FA supplement. Control plates contained no supplements.

human cancer = details: Yang, Liu et al. 2000; cited from earlier work
[4] = test system: mmBCFA deficient early L1 larvae; assay: Feeding of mmBCFA deficient early L1 larvae on plates without bacteria; type: in vivo, C. elegans; details: supplements on the plates without bacteria
[5] = test system: elo-5(RNAi) L1-arrested worms; assay: Recovery of elo-5(RNAi) worms from L1 arrest with FA supplements; type: in vivo, Caenorhabditis elegans
Description: as §1

lpd-1(RNAi) animals = assay: Rescue of lpd-1(RNAi) feeding defects by supplement; type: in vivo, C. elegans; details: supplement added to the plates

For `COC(=O)CCCCCCCCCC(C)C` [C13ISO-methyl ester], the “elongation of the supplement to C17ISO” value (elo-5(RNAi) worms [1]) was “can be efficiently elongated to C17ISO”.

In the case of `CC(C)CCCCCCCCCC(=O)O` [C13ISO], the growth rate (N2; N2, 0.75 mM and 1 mM) is reported as “grow as fast as N2 without supplements”, the “developmental stage on forth day after hatching” value (N2; N2, 10 mM) is reported as “remain at L4 or young adults stages” and the “effect on growth and maturation” value (N2; N2, 2.5-10 mM) is reported as “slowing at the L4 stage accompanied by a delay in the adult maturation”. For the same molecule, the brood size (N2; N2, high concentrations (2.5-10 mM)) was “maintain wild type brood size”, the “ability to modulate growth rate between L4 and adult stage” value (N2; dietary supplement) was “modulate growth rate between L4 and adult stage” and the “elongation into C15ISO and C17ISO in vitro” value ([2]; RIN-M5F (pancreatic beta cells)) was “able to elongate”. For the same molecule, the “elongation into C15ISO and C17ISO in vitro” value ([2]; SY-5Y (neuroblastoma)) was “able to elongate”, the “egg laying and survival on the second day of adulthood” value (elo-5(gk208); elo-5(gk208), 0.75 mM and 1 mM) was “fail to lay eggs and die a few days later” and the growth rate (elo-5(gk208); elo-5(gk208), 0.75 mM and 1 mM) was “grow as fast as N2 without supplements”. For the same molecule, the “developmental stage on forth day after hatching” value (elo-5(gk208); elo-5(gk208), 10 mM) was “remain at L4 or young adults stages”, the “effect on growth and maturation” value (elo-5(gk208); elo-5(gk208), 2.5-10 mM) was “slowing at the L4 stage accompanied by a delay in the adult maturation” and the brood size (elo-5(gk208); elo-5(gk208), high concentrations (2.5-10 mM)) was “maintain wild type brood size”. For the same molecule, the “animals that reach adulthood and have viable progeny” value (elo-5(gk208); supplement concentration above 0.75 mM) was 100%, the “rescue from elo-5(gk208) phenotype” value (elo-5(gk208); supplement concentration range 0-0.5 mM) was “no rescue; also recorded: does not rescue” and the “elongation into C15ISO and C17ISO in vitro” value (mouse C2C12 (myoblasts)) was “able to elongate”. For the same molecule, the “plates on which the supplement rescued the elo-5 RNAi defects” value (elo-5(RNAi) worms [3]) was 0/30 and the “rescue of mmBCFA deficiency” value (elo-5(RNAi) worms [3]) was “rescue mmBCFA deficiency”.

In the case of `CC(C)CCCCCCCCCCCC(=O)O` [C15ISO, 13-methyl myristic acid], the “effect on human cancer” value (human cancer) is given as “growth inhibitor of human cancer where it selectively induces apoptosis”, the “incorporation of the supplement into lipids and its elongation (GC)” value (“incorporation” below) (elo-5(RNAi) worms [1]) is given as “no accumulation of C15ISO or its elongation to C17ISO was detectable” and the “plates with partial rescue of the elo-5 RNAi defects” value (elo-5(RNAi) worms [3]) is given as 23/38. For the same molecule, the “rescue of mmBCFA deficiency” value (elo-5(RNAi) worms [3]) was “rescue mmBCFA deficiency” and the “rescue of elo-5(RNAi) phenotype” value (elo-5(RNAi) worms [3]) was “partially rescued”.

With `COC(=O)CCCCCCCCCCCC(C)C` [C15ISO-methyl ester] the “elongation of the supplement to C17ISO” value (elo-5(RNAi) worms [1]) was “can be efficiently elongated to C17ISO”.

For `CCC(C)CCCCCCCCCCC(=O)O` (stereo not shown) [C15anteISO], the “plates with partial rescue of the elo-5 RNAi defects” value (elo-5(RNAi) worms [3]) was 20/28.

With `CCCCCCCCCCCCCCCC(=O)O` [C16:0, palmitic acid, reference compound] the “plates on which the supplement rescued the elo-5 RNAi defects” value (elo-5(RNAi) worms [3]) was 0/30.

In the case of `CCCCCC/C=C\CCCCCCCC(=O)O` [C16:1 n7, reference compound], the “plates on which the supplement rescued the elo-5 RNAi defects” value (elo-5(RNAi) worms [3]) is reported as 0/30.

In the case of `CCCCCCCCCCCCCCCCC(=O)O` [C17:0, reference compound], the “plates on which the supplement rescued the elo-5 RNAi defects” value (elo-5(RNAi) worms [3]) is reported as 0/30.

With `CC(C)CCCCCCCCCCCCCC(=O)O` [C17ISO, 15-methyl hexadecanoic acid] the “development of early L1 arrested larvae” value [4] was “able to elongate and proceed to the mid-L1 stage”, the “arrested L1 rescued to full growth and proliferation” value (“arrested L1 rescued” for short) ([5]; four-day-old L1) was ~1% and the “arrested L1 rescued” value ([5]; two day-arrested L1) was “about 50%”. For the same molecule, the “rescue of lpd-1 RNAi feeding defects (slow growth, morphological abnormalities, egg-laying defects)” value (lpd-1(RNAi) animals) was “did not significantly rescue these defects”, the “incorporation” value (elo-5(RNAi) worms [1]) was “significantly incorporated into lipids” and the “growth of homozygous elo-5(gk208) on supplemented plates” value (elo-5(gk208); plates supplemented or seeded) was “grew normally; also recorded: grew without any obvious morphological defects”. For the same molecule, the “plates on which the supplement rescued the elo-5 RNAi defects” value (elo-5(RNAi) worms [3]) was 52/60, the “rescue of mmBCFA deficiency” value (elo-5(RNAi) worms [3]) was “rescue mmBCFA deficiency” and the “rescue of elo-5(RNAi) phenotype” value (elo-5(RNAi) worms [3]) was “fully rescued”.

In the case of `CCC(C)CCCCCCCCCCCCC(=O)O` (stereo not shown) [C17anteISO, 14-methyl hexadecanoic acid], the “arrested L1 rescued” value ([5]; four-day-old L1) is reported as ~1%, the “arrested L1 rescued” value ([5]; two day-arrested L1) is reported as “about 50%” and the “incorporation” value (elo-5(RNAi) worms [1]) is reported as “significantly incorporated into lipids”. The “plates on which the supplement rescued the elo-5 RNAi defects” value (elo-5(RNAi) worms [3]) was 58/60 and the “rescue of elo-5(RNAi) phenotype” value (elo-5(RNAi) worms [3]) was “fully rescued”.

In the case of `CCCCC/C=C\C/C=C\C/C=C\CCCCC(=O)O` [C18:3 n6, reference compound], the “plates on which the supplement rescued the elo-5 RNAi defects” value (elo-5(RNAi) worms [3]) is reported as 0/30.

In the case of `CC(C)CCCCCCCCCCCCCCC(=O)O` [C18ISO, reference compound], the “plates on which the supplement rescued the elo-5 RNAi defects” value (elo-5(RNAi) worms [3]) is reported as 0/30.

With `CC(C)CCCCCCCCCCCCCCCC(=O)O` [C19ISO, reference compound] the “plates on which the supplement rescued the elo-5 RNAi defects” value (elo-5(RNAi) worms [3]) was 0/30.

In the case of `CC(C)CCCC(C)CCCC(C)CCCC(C)CC(=O)O` (stereo not shown) [phytanic acid, reference compound], the “plates on which the supplement rescued the elo-5 RNAi defects” value (elo-5(RNAi) worms [3]) is reported as 0/30.
